Drawing on publication PMC6723439, “The Aryl Hydrocarbon Receptor (AhR) Mediates the Counter-Regulatory Effects of Pelargonidins in Models of Inflammation and Metabolic Dysfunctions” (Nutrients, 2019), this text covers EC50 for 2 compounds.

As usually defined, the EC50 is the midpoint of the concentration-response curve.

Molecules are shown by their SMILES.

Test [1] addresses T1, aryl hydrocarbon receptor (AhR) (Homo sapiens, UniProt P35869).
T1 construct: pCMVXL4AhR transfected in HepG2 cells
T1 sequence (P35869 11-848): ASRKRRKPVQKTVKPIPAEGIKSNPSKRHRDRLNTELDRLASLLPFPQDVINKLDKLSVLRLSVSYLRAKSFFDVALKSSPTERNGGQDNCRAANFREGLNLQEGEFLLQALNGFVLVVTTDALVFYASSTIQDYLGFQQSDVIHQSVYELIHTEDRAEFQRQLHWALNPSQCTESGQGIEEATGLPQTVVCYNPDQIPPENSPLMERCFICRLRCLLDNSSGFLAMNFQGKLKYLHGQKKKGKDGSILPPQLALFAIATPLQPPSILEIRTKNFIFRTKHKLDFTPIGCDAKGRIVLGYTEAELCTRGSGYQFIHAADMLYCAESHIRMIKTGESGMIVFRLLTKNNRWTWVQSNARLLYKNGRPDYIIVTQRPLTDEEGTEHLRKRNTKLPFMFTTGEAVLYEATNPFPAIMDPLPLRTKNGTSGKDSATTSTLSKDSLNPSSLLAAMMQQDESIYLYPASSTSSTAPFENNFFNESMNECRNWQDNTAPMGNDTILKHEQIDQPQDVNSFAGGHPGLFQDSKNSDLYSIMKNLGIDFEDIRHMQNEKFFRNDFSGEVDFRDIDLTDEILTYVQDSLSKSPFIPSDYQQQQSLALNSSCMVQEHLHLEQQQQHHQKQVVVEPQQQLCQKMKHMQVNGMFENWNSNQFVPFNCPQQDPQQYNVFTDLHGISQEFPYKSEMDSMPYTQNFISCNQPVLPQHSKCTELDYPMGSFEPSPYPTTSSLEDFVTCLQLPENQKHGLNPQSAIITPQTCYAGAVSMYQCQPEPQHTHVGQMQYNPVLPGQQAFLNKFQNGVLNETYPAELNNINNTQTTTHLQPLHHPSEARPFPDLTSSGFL
The test is described as follows: AhR luciferase reporter transactivation in AhR-transfected HepG2 cells; effects lost in AhR-/- macrophages. It is filed as cell-based. Background: Reporter assays use an easily measured gene product as a stand-in for the process of interest.

The target of test [2] is T1, aryl hydrocarbon receptor (AhR). The test is described as follows: AhR luciferase reporter transactivation in AhR-transfected HepG2 cells. It is filed as cell-based.

With `COc1ccc(-c2[o+]c3cc(OC)cc(OC)c3cc2O)cc1` [Mt-P, methylated pelargonidin], a half-maximal response in test [1] (EC50) required 1970 nM. In other words, the single-digit micromolar range. With `Oc1ccc(-c2[o+]c3cc(O)cc(O)c3cc2O)cc1` [P, pelargonidin], the EC50 in test [2] was 4000 nM.
